This note sets out measurements from US7294637B2 (Sepracor, Inc., priority 2000, dated 2007).

pEC50, pIC50: −log10 of the molar value. Like-named read-outs stand apart in the source and are kept apart here. A value given as a limit tells only on which side of the number the result lay.

A word on the IC50: it is the concentration that gives 50% inhibition. A low value points to inhibition by little substance. For orientation: pEC50 means the EC50 on a negative log10 scale, so that one unit is a factor of ten. What is called pIC50 is the negative decadic logarithm of the IC50, by convention in mol/L.

For series [1], the target named is dopamine transporter (Homo sapiens, UniProt Q01959). As to the kind of experiment: DA uptake: displacement of dopamine ligands in vitro (methods of Gu et al.). As to conditions: DA Uptake, Uptake Profile (IC50, nM), displacement of dopamine ligands in vitro.
For series [2], the target named is T1, norepinephrine transporter (Homo sapiens, UniProt P23975). The experiment in a line: NE uptake: displacement of norephinephrine ligands in vitro (methods of Galli et al.). Type of series: binding. As to conditions: NE Uptake, Uptake Profile (IC50, nM).
The subject of series [3] is mouse. The experiment in a line: Acute toxicity assessment, maximum tolerated dose i.v., mouse. The settings on record: mice. Type of series: in vivo. On the procedure: (§1) An in vivo evaluation was carried out to determine the maximum tolerated dose of numerous test compounds in two animal species (mouse and rat). The compounds were administered i.v. and the animals were then observed for 72 h. Compounds 114, 115, 113, 110, 124, 125, 129, and 130 were solubilized in 5% dextrose (w/v)/polyethylene glycol 400 (4:1 v/v). Compounds 126, 127, 131, and 132 were solubilized in 10% hydroxypropyl-β-cyclodextrin (w/v).

Series [4] deals with T2, serotonin transporter (Homo sapiens, UniProt P31645). The experiment in a line: Functional activity, serotonin uptake inhibition in human HEK-293 cell lines. In kind it is cell-based. On the set-up: expressed in transfected cells; host or cells: HEK-293. The settings on record: human HEK-293 cell lines; read-out: 5-HT Uptake, Functional Assays (antagonism, EC50).
Series [5] deals with DAT (Homo sapiens, UniProt Q01959). As to the kind of experiment: cell-based. The arrangement: expressed in transfected cells. The settings on record: hDAT cell line; read-out: DA Uptake, Functional Assays (antagonism, EC50).
Series [6] concerns rat. The experiment in a line: Acute toxicity assessment, maximum tolerated dose i.v., rat. Type of series: in vivo. As to conditions: rats. On the procedure:
as §1

In series [7] the target is T1, norepinephrine transporter. The experiment in a line: Functional activity, norephinephrine uptake inhibition in MDCK cell lines. Type of series: cell-based.
Series [8] addresses T2, serotonin transporter. As to the kind of experiment: 5-HT uptake: displacement of serotonin ligands in vitro (methods of Gu et al.). Type of series: binding. As to conditions: displacement of serotonin ligands in vitro; read-out: 5-HT Uptake, Uptake Profile (IC50).
For series [9], the system named is rats. The experiment in a line: Behavioral despair assay in rats, 3 i.p. injections (Example 143). In kind it is in vivo, rat. As to conditions: for % variation of the total duration of immobility: 3 i.p. injections 24 h, 5 h and 1 h before test. The source says: The objective of this study was to assess the antidepressant effects of test compounds 124, 125, 126, and 127 in the behavioral despair assay in rats according to the methods described by Porsolt R. D., Anton G., Blavet N., Jalfre M., Behavioural despair in rats: a new model sensitive to antidepressant treatment, Eur. J. Pharmacol., 1978, 47, 379-391. The animals were preconditioned in a pretest session, where the rats were individually forced to swim inside a vertical plexiglass cylinder containing water maintained at 19-20° C. After 15 minutes in the water, they were allowed to dry for 15 minutes in a heated enclosure. Twenty four hours later, they were replaced in the cylinder and the total duration of immobility was measured during a 5 minute test (test session). The test compounds and vehicle were administered as a series of 3 intraperitoneal injections 24 h, 5 h and 1 h before the 5 minute test on the second day.
(§2) The results are expressed as the percentage of variation of the total duration of immobility calculated from the mean value of the vehicle-treated group (% variation=[(immobility duration of vehicle-immobility duration of test compound)/(immobility duration of vehicle)]×100%).

Series [10] relates to rats. In kind it is in vivo, rat. On the procedure:
The animals were preconditioned in a pretest session, where the rats were individually forced to swim inside a vertical plexiglass cylinder containing water maintained at 19-20° C. […] Twenty four hours later, the compounds were administered intraperitoneal to the animals. One hour after administration of the test compound, animals were put back into the cylinder containing water. The total duration of immobility was measured during the last 4 minutes of a 6 minute test.
as §2

T1 sequence (P23975 whole entry): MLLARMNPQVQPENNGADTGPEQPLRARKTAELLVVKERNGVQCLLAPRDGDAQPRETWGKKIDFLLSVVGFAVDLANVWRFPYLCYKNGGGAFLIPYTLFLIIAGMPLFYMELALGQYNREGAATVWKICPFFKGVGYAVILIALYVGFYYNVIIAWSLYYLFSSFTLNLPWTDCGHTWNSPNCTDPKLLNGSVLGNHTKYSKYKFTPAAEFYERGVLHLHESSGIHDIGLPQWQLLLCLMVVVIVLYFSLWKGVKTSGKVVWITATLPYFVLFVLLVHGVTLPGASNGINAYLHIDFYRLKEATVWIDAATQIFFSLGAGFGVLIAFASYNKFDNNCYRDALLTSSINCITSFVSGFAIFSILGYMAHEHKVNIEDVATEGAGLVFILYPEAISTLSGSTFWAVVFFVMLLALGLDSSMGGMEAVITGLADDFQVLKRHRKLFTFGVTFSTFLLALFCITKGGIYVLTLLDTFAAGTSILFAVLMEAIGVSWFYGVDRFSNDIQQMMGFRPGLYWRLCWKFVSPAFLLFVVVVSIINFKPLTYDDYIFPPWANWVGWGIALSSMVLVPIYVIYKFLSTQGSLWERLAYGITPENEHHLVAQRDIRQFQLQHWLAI
Chain of DAT (Q01959 whole entry): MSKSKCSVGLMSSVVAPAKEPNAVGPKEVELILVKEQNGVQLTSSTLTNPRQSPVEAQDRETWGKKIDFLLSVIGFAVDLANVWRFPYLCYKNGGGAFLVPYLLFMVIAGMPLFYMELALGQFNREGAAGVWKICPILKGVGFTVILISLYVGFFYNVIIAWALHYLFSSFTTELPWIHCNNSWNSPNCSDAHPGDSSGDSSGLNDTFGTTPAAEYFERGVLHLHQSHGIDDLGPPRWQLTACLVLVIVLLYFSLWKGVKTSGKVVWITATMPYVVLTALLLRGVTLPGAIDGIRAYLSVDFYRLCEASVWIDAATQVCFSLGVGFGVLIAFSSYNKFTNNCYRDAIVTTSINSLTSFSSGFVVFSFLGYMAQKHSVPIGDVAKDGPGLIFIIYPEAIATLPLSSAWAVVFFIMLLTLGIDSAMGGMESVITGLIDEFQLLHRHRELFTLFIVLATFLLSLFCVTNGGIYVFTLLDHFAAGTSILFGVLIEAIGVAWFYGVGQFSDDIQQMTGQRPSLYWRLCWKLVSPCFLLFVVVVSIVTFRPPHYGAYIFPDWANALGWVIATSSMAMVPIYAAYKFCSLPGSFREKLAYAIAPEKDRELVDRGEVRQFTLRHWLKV
Chain of dopamine transporter (Q01959 whole entry): as above
T2 sequence (P31645 whole entry): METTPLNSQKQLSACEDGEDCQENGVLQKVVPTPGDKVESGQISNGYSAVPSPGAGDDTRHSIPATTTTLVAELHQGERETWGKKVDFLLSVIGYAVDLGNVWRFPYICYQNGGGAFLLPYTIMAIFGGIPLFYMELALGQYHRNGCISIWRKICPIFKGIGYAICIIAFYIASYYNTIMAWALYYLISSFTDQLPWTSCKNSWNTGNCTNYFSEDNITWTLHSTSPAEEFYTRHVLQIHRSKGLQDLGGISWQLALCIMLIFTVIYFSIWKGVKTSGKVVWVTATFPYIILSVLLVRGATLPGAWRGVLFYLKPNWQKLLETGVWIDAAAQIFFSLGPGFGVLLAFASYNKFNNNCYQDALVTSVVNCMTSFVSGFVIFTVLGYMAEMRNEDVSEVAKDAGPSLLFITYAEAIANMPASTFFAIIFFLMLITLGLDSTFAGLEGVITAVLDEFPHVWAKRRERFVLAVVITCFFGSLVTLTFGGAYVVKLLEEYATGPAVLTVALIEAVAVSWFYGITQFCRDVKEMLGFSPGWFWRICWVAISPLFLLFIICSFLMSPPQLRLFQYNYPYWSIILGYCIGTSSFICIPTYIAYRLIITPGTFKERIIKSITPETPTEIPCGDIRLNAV

Turning to `FC(F)(F)c1ccc(COC[C@@H]2CCCN(CC3(c4ccc(Cl)cc4)CCC3)C2)cc1` [compound 130, R-1-[1-(4-Chloro-phenyl)-cyclobutylmethyl]-3-(4-trifluoromethyl-benzyloxymethyl)-piperidine], the IC50 in series [1] is less than 100 nM; in series [2], less than 1000 nM. The “tolerability and mortality after 72 h” value in series [3] (30 mg/kg i.v.) and in series [6] (30 mg/kg i.v.) was “well tolerated” in each case. The figures for the pEC50 in series [4], in series [5] and in series [7] were less than 6.00, greater than 8.00 and greater than 7.00, respectively. In addition, the pIC50 in [8] was greater than 6.00.
Regarding `O[C@@H](CN1CCC[C@@H](COc2ccc(C(F)(F)F)cc2)C1)C1(c2ccc(Cl)cc2)CCC1` [compound 127, 1S-1-[1-(4-Chloro-phenyl)-cyclobutyl]-2-[(3R)-3-(4-trifluoromethyl-phenoxymethyl)-piperidin-1-yl]-ethanol], the IC50 in series [1] is less than 10 nM; in series [2], less than 100 nM. For the same compound, the “tolerability and mortality after 72 h” value in series [3] (30 mg/kg i.v.) and in [6] (30 mg/kg i.v.) was “well tolerated” in each case. Also, the pEC50 is less than 6.00 in series [4], greater than 8.00 in series [5] and greater than 6.00 in series [7]. Besides, the “% variation of the total duration of immobility” value (“% variation” for short) in series [9] (1.0 mg/kg) was 14%; in [9] (2.0 mg/kg), 39%; in series [9] (2.5 mg/kg), 39%; in series [9] (3.0 mg/kg) it was 64%; in series [10] (2.5 mg/kg i.p., 1 h before test) it was 25%; in series [10] (10 mg/kg i.p., 1 h before test), 67%. Further, the “effectiveness (statistically significant variation >30%)” value in [9] (2.5 mg/kg) is “effective”. Further, the pIC50 in series [8] was less than 6.00.
Regarding `FC(F)(F)c1ccc(COC[C@H]2CCCN(CC3(c4ccc(Cl)cc4)CCC3)C2)cc1` [compound 129, S-1-[1-(4-Chloro-phenyl)-cyclobutylmethyl]-3-(4-trifluoromethyl-benzyloxymethyl)-piperidine], the IC50 in series [1] was less than 10 nM; in [2], less than 100 nM. For the same compound, in [3] (20 mg/kg i.v.), the “tolerability after 72 h” value is “well tolerated”. Also, the pEC50 was greater than 7.00 in series [4], greater than 8.00 in series [5] and greater than 7.00 in [7]. The “tolerability and mortality after 72 h” value in series [6] (30 mg/kg i.v.) is “well tolerated”. Also, in series [8], the pIC50 was less than 6.00.
With `O[C@@H](CN1CCC[C@H](COc2ccc(C(F)(F)F)cc2)C1)C1(c2ccc(Cl)cc2)CCC1` [compound 125, 1R-1-[1-(4-Chloro-phenyl)-cyclobutyl]-2-[(3S)-3-(4-trifluoromethyl-phenoxymethyl)-piperidin-1-yl]-ethanol], the IC50 in series [1] is less than 10 nM; in series [2], less than 100 nM. The “tolerability and mortality after 72 h” value in [3] (30 mg/kg i.v.) and in series [6] (30 mg/kg i.v.) was “well tolerated” throughout. In addition, the pEC50 in series [4] was greater than 6.00; in series [5], greater than 8.00; in series [7], greater than 6.00. In addition, the “% variation” value in series [9] (2.5 mg/kg) is recorded as 12%; in series [10] (10 mg/kg i.p., 1 h before test), 55%. Besides, in series [8], the pIC50 was greater than 6.00.
For the compound `OC(CN1CCCC(CCc2ccccc2)C1)c1ccc(Cl)cc1` (single isomer, unassigned) [compound 144, 1-(4-Chloro-phenyl)-2-(3-phenethyl-piperidin-1-yl)-ethanol], the IC50 is less than 10 nM in [1] and less than 100 nM in series [2]. The “tolerability and mortality after 72 h” value in series [3] (5 mg/kg i.v.) and in [6] (5 mg/kg i.v.) was “tolerated” each time. The pIC50 in series [8] was greater than 8.00.
Regarding `CN1Cc2c(N)cccc2C(c2ccccc2)C1` (stereo not shown) [nomifensine, reference compound], the “% variation” value in [10] (rat, in vivo) worked out at 78%.
On to `OC[C@H]1[C@@H](COc2ccc(C(F)(F)F)cc2)CCCN1CC1(c2ccc(Cl)cc2)CCC1` (single isomer, unassigned) [compound 131, cis-[1-[1-(4-chloro-phenyl)-cyclobutylmethyl]-3-(4-trifluoromethyl-phenoxymethyl)-piperidin-2-yl]-methanol], for which the IC50 in series [1] is less than 100 nM; in [2] it was less than 1000 nM. The “tolerability and mortality after 72 h” value in [3] (30 mg/kg i.v.) and in [6] (30 mg/kg i.v.) was “well tolerated” each time. The pIC50 in series [8] was greater than 6.00.
